Test results from patent publication US9987259B2 (priority 2011, dated 2018).

Each compound was assayed against human α7 nAChR (Homo sapiens (Human), UniProt P36544) (assay: cell-based). Conditions: not given.
Chain of human α7 nAChR (P36544 23-502 limits assumed): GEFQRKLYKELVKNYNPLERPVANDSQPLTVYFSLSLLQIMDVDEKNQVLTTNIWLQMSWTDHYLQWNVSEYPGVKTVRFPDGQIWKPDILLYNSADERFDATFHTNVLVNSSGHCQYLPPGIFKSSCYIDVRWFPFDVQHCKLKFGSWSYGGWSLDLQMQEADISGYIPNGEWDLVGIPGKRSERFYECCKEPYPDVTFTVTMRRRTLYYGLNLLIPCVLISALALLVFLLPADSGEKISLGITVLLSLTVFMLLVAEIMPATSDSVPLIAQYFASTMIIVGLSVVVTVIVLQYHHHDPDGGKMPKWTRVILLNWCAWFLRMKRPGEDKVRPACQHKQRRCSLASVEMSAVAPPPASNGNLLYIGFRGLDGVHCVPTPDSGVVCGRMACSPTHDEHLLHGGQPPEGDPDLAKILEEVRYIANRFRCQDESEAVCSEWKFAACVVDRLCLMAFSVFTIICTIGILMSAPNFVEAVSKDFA

SMILES | EC50
Cc1cnc(-n2cc(C(=O)NC3CN4CCC3CC4)ccc2=O)s1 (centres unmarked) [Example 10, N-(1-azabicyclo[2.2.2]octan-3-yl)-1-(5-methyl-2-thiazolyl)-6-oxo-3-pyridinecarboxamide] | 0.1 to 0.5 µM
O=C(NC1CN2CCC1CC2)c1ccc(=O)n(-c2ncc(Cc3ccccc3)s2)c1 (centres unmarked) [Example 29] | 0.1 to 0.5 µM
O=C(NC1CN2CCC1CC2)c1ccc(=O)n(-c2ccc(-c3ccccc3)cn2)c1 (centres unmarked) [Example 7, N-(1-azabicyclo[2.2.2]octan-3-yl)-6-oxo-1-(5-phenyl-2-pyridine-1-yl)-3-pyridinecarboxamide] | 0.1 to 0.5 µM
O=C(NC1CN2CCC1CC2)c1ccc(=O)n(-c2nccs2)c1 (centres unmarked) [Example 1, N-(1-azabicyclo[2.2.2]octan-3-yl)-6-oxo-1-(2-thiazolyl)-3-pyridinecarboxamide] | 0.1 to 0.5 µM
CC(C)(C)c1cnc(-n2cc(C(=O)N[C@@H]3CN4CCC3CC4)ccc2=O)s1 [Example 22, N-[(3S)-1-azabicyclo[2.2.2]octan-3-yl]-1-[5-tert-butyl-2-thiazolyl]-6-oxo-3-pyridinecarboxamide] | 0.5 to 1 µM
O=C(N[C@H]1CN2CCC1CC2)c1ccc(=O)n(-c2ncc(Cl)s2)c1 [Example 27, N-[(3R)-1-azabicyclo[2.2.2]octan-3-yl]-1-(5-chloro-2-thiazolyl)-6-oxo-3-pyridinecarboxamide] | 0.1 to 0.5 µM
O=C(N[C@@H]1CN2CCC1CC2)c1ccc(=O)n(-c2nccs2)c1 [Example 3, N-[(3S)-1-azabicyclo[2.2.2]octan-3-yl)-6-oxo-1-(2-thiazolyl)-3-pyridinecarboxamide] | 0.1 to 0.5 µM
O=C(N[C@H]1CN2CCC1CC2)c1ccc(=O)n(-c2nccs2)c1 [Example 2, N-[(3R)-1-azabicyclo[2.2.2]octan-3-yl)-6-oxo-1-(2-thiazolyl)-3-pyridinecarboxamide] | 0.1 to 0.5 µM
CCCc1cnc(-n2cc(C(=O)NC3CN4CCC3CC4)ccc2=O)s1 (centres unmarked) [Example 16, N-(1-azabicyclo[2.2.2]octan-3-yl)-6-oxo-1-(5-propyl-2-thiazolyl)-3-pyridinecarboxamide] | 0.1 to 0.5 µM
CCc1cnc(-n2cc(C(=O)N[C@@H]3CN4CCC3CC4)ccc2=O)s1 [Example 15, N-[(3S)-1-azabicyclo[2.2.2]octan-3-yl]-1-(5-ethyl-2-thiazolyl)-6-oxo-3-pyridinecarboxamide] | 0.1 to 0.5 µM
CC(C)(C)c1cnc(-n2cc(C(=O)N[C@H]3CN4CCC3CC4)ccc2=O)s1 [Example 21, N-[(3R)-1-azabicyclo[2.2.2]octan-3-yl]-1-[5-tert-butyl-2-thiazolyl]-6-oxo-3-pyridinecarboxamide] | 0.1 to 0.5 µM
CCc1cnc(-n2cc(C(=O)NC3CN4CCC3CC4)ccc2=O)s1 (centres unmarked) [Example 13, N-(1-azabicyclo[2.2.2]octan-3-yl)-1-(5-ethyl-2-thiazolyl)-6-oxo-3-pyridinecarboxamide] | 0.1 to 0.5 µM
Cc1cnc(-n2cc(C(=O)N[C@@H]3CN4CCC3CC4)ccc2=O)s1 [Example 12, N-[(3S)-1-azabicyclo[2.2.2]octan-3-yl]-1-(5-methyl-2-thiazolyl)-6-oxo-3-pyridinecarboxamide] | 0.5 to 1 µM
O=C(NC1CN2CCC1CC2)c1ccc(=O)n(-c2nc3ccccc3s2)c1 (centres unmarked) [Example 33, N-(1-azabicyclo[2.2.2]octan-3-yl)-1-(1,3-benzothiazole-2-yl)-6-oxo-3-pyridinecarboxamide] | 0.1 to 0.5 µM
CC(C)(C)c1cnc(-n2cc(C(=O)NC3CN4CCC3CC4)ccc2=O)s1 (centres unmarked) [Example 20, N-(1-azabicyclo[2.2.2]octan-3-yl)-1-(5-tert-butyl-2-thiazolyl)-6-oxo-3-pyridinecarboxamide] | 0.1 to 0.5 µM
O=C(NC1CN2CCC1CC2)c1ccc(=O)n(-c2ncc(C3CCCCC3)s2)c1 (centres unmarked) [Example 24, N-(1-azabicyclo[2.2.2]octan-3-yl)-1-(5-cyclohexyl-2-thiazolyl)-6-oxo-3-pyridinecarboxamide] | 0.1 to 0.5 µM
O=C(NC1CN2CCC1CC2)c1ccc(=O)n(-c2ncc(C3CCCC3)s2)c1 (centres unmarked) [Example 23, N-(1-azabicyclo[2.2.2]octan-3-yl)-1-(5-cyclopentyl-2-thiazolyl)-6-oxo-3-pyridinecarboxamide] | 0.1 to 0.5 µM
O=C(NC1CN2CCC1CC2)c1ccc(=O)n(-c2ncc(-c3ccccc3)s2)c1 (centres unmarked) [Example 25, N-(1-azabicyclo[2.2.2]octan-3-yl)-1-(5-phenyl-2-thiazolyl)-6-oxo-3-pyridinecarboxamide] | 0.5 to 1 µM
CC(C)c1cnc(-n2cc(C(=O)N[C@@H]3CN4CCC3CC4)ccc2=O)s1 [Example 19, N-[(3S)-1-azabicyclo[2.2.2]octan-3-yl)-6-oxo-1-(5-propan-2-yl-2-thiazolyl)-3-pyridinecarboxamide] | 0.1 to 0.5 µM
CC(C)c1cnc(-n2cc(C(=O)NC3CN4CCC3CC4)ccc2=O)s1 (centres unmarked) [Example 17, N-(1-azabicyclo[2.2.2]octan-3-yl)-6-oxo-1-(5-propan-2-yl-2-thiazolyl)-3-pyridinecarboxamide] | 0.1 to 0.5 µM

Same assay, conditions: HEK293T/17 cells transfected with human α7 nAChR and RIC3; with PNU-120596; fluorescence relative to 1 μM epibatidine; read-out: EC50 of human α7 nAChR

SMILES | EC50
O=C(NC1CN2CCC1CC2)c1ccc(=O)n(-c2ncc(Cl)s2)c1 (centres unmarked) [Example 26, N-(1-azabicyclo[2.2.2]octan-3-yl)-1-(5-chloro-2-thiazolyl)-6-oxo-3-pyridinecarboxamide] | < 0.1 µM
O=C(N[C@@H]1CN2CCC1CC2)c1ccc(=O)n(-c2ncc(Cl)s2)c1 [Example 28, N-[(3S)-1-azabicyclo[2.2.2]octan-3-yl]-1-(5-chloro-2-thiazolyl)-6-oxo-3-pyridinecarboxamide] | > 1 µM
Cc1cnc(-n2cc(C(=O)N[C@H]3CN4CCC3CC4)ccc2=O)s1 [Example 11, N-[(3R)-1-azabicyclo[2.2.2]octan-3-yl]-1-(5-methyl-2-thiazolyl)-6-oxo-3-pyridinecarboxamide] | < 0.1 µM
O=C(NC1CN2CCC1CC2)c1ccc(=O)n(-c2ccc(Cl)cn2)c1 (centres unmarked) [Example 6, N-(1-azabicyclo[2.2.2]octan-3-yl)-1-(5-chloro-2-pyridinyl)-6-oxo-3-pyridinecarboxamide] | > 1 µM
O=C(NC1CN2CCC1CC2)c1ccc(=O)n(-c2cc(-c3ccccc3)no2)c1 (centres unmarked) [Example 9, N-(1-azabicyclo[2.2.2]octan-3-yl)-6-oxo-1-[3-phenyl-5-isoxazolyl)-3-pyridinecarboxamide] | > 1 µM
CC(C)c1cnc(-n2cc(C(=O)N[C@H]3CN4CCC3CC4)ccc2=O)s1 [Example 18, N-[(3R)-1-azabicyclo[2.2.2]octan-3-yl)-6-oxo-1-(5-propan-2-yl-2-thiazolyl)-3-pyridinecarboxamide] | < 0.1 µM
Cc1csc(-n2cc(C(=O)NC3CN4CCC3CC4)ccc2=O)n1 (centres unmarked) [Example 30, N-(1-azabicyclo[2.2.2]octan-3-yl)-1-(4-methyl-2-thiazolyl)-6-oxo-3-pyridinecarboxamide] | > 1 µM
Cc1nnc(-n2cc(C(=O)NC3CN4CCC3CC4)ccc2=O)s1 (centres unmarked) [Example 42, N-(1-azabicyclo[2.2.2]octan-3-yl)-1-[5-methyl-1,3,4-thiadiazole-2-yl)-6-oxo-3-pyridinecarboxamide] | > 1 µM
CCc1cnc(-n2cc(C(=O)N[C@H]3CN4CCC3CC4)ccc2=O)s1 [Example 14, N-[(3R)-1-azabicyclo[2.2.2]octan-3-yl]-1-(5-ethyl-2-thiazolyl)-6-oxo-3-pyridinecarboxamide] | < 0.1 µM
